Data from patent publication US20170252278A1, “INHIBITION OF MATURATION OF DENTAL BIOFILM AND CARIOGENIC PROPERTIES” (KONINKLIJKE PHILIPS N.V., priority 2014, published 2017).

What was measured:
Type in all cases: cell-based
[1] = test system: in vitro oral plaque biofilms; test: Lactic acid production of biofilms grown with 3-oxo-N(2-oxocyclohexyl)dodecanamide and C12-HSL (interference test); settings: all concentrations (25 or 100 μM), with 0, 25 or 100 μM C12-HSL; 48 h growth
Description: (§1) To estimate the cariogenic phenotype, lactic acid production of the in vitro oral plaque biofilms was determined prior to harvesting (Exerkate et al 2010). In short, the biofilms on coverslips were placed in a 24-well plate containing 1.5 ml of BPW with 0.2% sucrose. Lactic acid formation was allowed for 3 hr at 37° C. under anaerobic conditions. The total amount of lactic acid produced in this period was analyzed using a colorimetric assay described previously (van Loveren et al. (2000)) and expressed as mM lactic acid, and as μM lactic acid per 1×10^6 CFU.
In this experiment the effect of the quorum sensing molecule C12-HSL on the lactate reducing activity of 3-Oxo-N-(2-oxocyclohexyl)dodecanamide was tested. Biofilms were grown for 48 h in buffered McBain medium supplemented with 0.2% sucrose, in the presence of 0, or 25 or 100 μM 3-oxo-N(2-oxocyclohexyl)dodecanamide and 0, or 25 or 100 μM of C12-HSL. Medium was refreshed twice every day. After 48 h of growth, biofilms were transferred to BPW with 0.2% sucrose, and biofilms were allowed to produce lactate for 3 h.

[2] = test system: in vitro oral plaque biofilms; test: Lactic acid production assay of in vitro oral plaque biofilms
Description: All compounds tested of Table 1 were obtained from Sigma Aldrich. All compounds of Table 2, except 3-oxo-N(2oxocyclohexyl)dodecanamide, were kindly provided by M. Meijler, University of the Negev, Israel. The compounds were dissolved in DMSO and stored at −20 C. The compounds were continuously present at the indicated concentrations during biofilm growth, but not during further phenotypic analysis, i.e. lactate production.
as §1
Biofilms were grown for 48 h in buffered McBain medium supplemented with 0.2% sucrose in the presence of 100 μM of one of the compounds. Medium was refreshed twice every day. […]

[3] = test system: in vitro oral plaque biofilms; test: Microbial composition of biofilms by 16S rDNA sequencing; settings: for Actinobacillus, share of biofilm composition / Actinomyces, share of biofilm composition / Campylobacter, share of biofilm composition / Fusobacterium, share of biofilm composition / Granulicatella, share of biofilm composition / Haemophilus, share of biofilm composition / Megasphaera, share of biofilm composition / Neisseria, share of biofilm composition / Other taxa, share of biofilm composition / Porphyromonas, share of biofilm composition / Prevotella, share of biofilm composition / Rothia, share of biofilm composition / Solobacterium, share of biofilm composition / Streptococcus, share of biofilm composition / Unclass. Pasteurellaceae, share of biofilm composition / Veillonella, share of biofilm composition: 3-Oxo-N 100 μM, furanones 10 μM
Description: DNA was isolated using phenol bead-beating followed by Agowa isolation, following the manufacturers instructions (LGC Genomics, Mag mini kit). Briefly, cells were mechanically disrupted four times at 1200 rpm for two minutes in addition of Tris-saturated Phenol, pH8, 0.1 mm zirconium beads and Mag lysis buffer. The DNA-containing phase was mixed with binding buffer and magnetic beads. DNA concentration was estimated by determining the absorbance at 260 nm using the nanodrop (Isogen, ND-1000).
PCR was performed in a final volume of 25 μl containing 1 μl of each primer ([…]), 1 μl dNTP (10 mM), 2.5 μl 10× DreamTaq Buffer including MgCl2 (Thermo Scientific), 0.2 μl DreamTaq DNA Polymerase (5 u/μ1, Thermo Scientific) and 50 ng of DNA. Initial denaturation was performed at 94° C. for 4 min, followed by 35 cycles of denaturation at 94° C. for 30 s, 54° C. annealing for 1 min, 72° C. for 1 min primer extension and a final extension at 72° C. for 5 min. Product formation was confirmed by electrophoresis of 5 μl on a 1% (w/v) agarose gel (Sphearo Q, Leiden, The Netherlands) stained with ethidium bromide.
These samples were analyzed by 16S rDNA Illumina sequencing at TNO Zeist (Netherlands).
Table 3. Microbial composition of biofilms grown for 48 (Table 3A) or 96 h (Table 3B) in the presence of different QS inhibitors. Composition was determined by 16S rDNA sequencing. The composition of the original inoculum used for all biofilms was also determined. “Unclass.” means: unclassified.

[4] = test system: in vitro oral plaque biofilms; test: In vitro oral plaque biofilm formation in the Amsterdam Active Attachment Model, CFU determination; settings: for in vitro oral plaque biofilm formation, Colony Forming Units: FIG. 1
Description: Stimulated saliva, used as inoculum, was collected on ice from ten donors. Saliva was donated 24 h after last brushing. The saliva was diluted 2-fold with 60% sterile glycerol, aliquoted and stored at −80° C. Before use, a pooled sample was prepared by mixing 200 μl of thawed saliva of each donor and vortexing for 30 seconds. In vitro oral plaque biofilms were inoculated 1:50 with pooled saliva.
In vitro oral plaque biofilms were grown in the Amsterdam Active Attachment Model (AAA-model, Exterkate et al. (2010)), assembled with glass coverslips (diameter 12 mm; Menzel, Braunschweig, Germany). The model was inoculated for 8 h with pooled saliva in buffered semi-defined McBain medium (2.5 g/l mucin (Sigma, St Louis, Mo.), 2.0 g/l Bacto peptone (Difco, Detroit, Mich.), 2.0 g/l Trypticase peptone (BBL, Cockeysville, Md.), 1.0 g/l yeast extract (BD Diagnostic Systems, Sparks, Md.), 0.35 g/l NaCl, 0.2 g/l KCl, 0.2 g/l CaCl2, 1 mg/l hemin (Sigma, St. Louis, Mo., USA), and 2 mg/l vitamin K1 (McBain et al. (2005)), with 50 mmol/1 PIPES at pH 7.0), with 0.2% sucrose.
In vitro oral plaque biofilms were grown in the AAA-model for 48-96 h in the presence of the compounds tested. The model was inoculated with saliva and incubated anaerobically at 37° C. for 8 hours to allow microbes to attach to the glass coverslips. After 8 hours of attachment, the inoculation medium was refreshed and in vitro oral plaque biofilms were grown for 16 hours. This refreshment routine was repeated daily until the day of harvesting.
In vitro oral plaque biofilms were harvested by transferring the glass coverslips into 2 ml phosphate buffered saline (PBS). The biofilms were dispersed using a Vibracell VCX130 sonicator with a maximum of 130 Watts and 20 kHz (Sonics & Materials, Newtown, USA). Bio films were sonicated on ice for 1 minute with a pulse rate of 50% and pulses of 1 second. Vibration amplitude was set to 40%.
To estimate the amount of in vitro oral plaque biofilm formation, total anaerobic colony forming units were determined. Briefly, serial dilutions of the dispersed bio films were made and plated on tryptic soy agar blood plates. Plates were subsequently incubated anaerobically for 96 h at 37° C. and colony forming units were determined by counting the number of colonies for each dilution.

## CCCCCCCCCC(=O)CC(=O)NC1CCCCC1=O (stereo not shown) [3-Oxo-N, 3-oxo-N-(2-oxocyclohexyl)dodecanamide]
[1]
  total lactic acid production per biofilm vs control (FIG. 3): statistical significant difference
[2]; 10 μM
  lactate production (FIG. 4A): significantly reduces
[2]; 100 μM
  lactate production (FIG. 4A): almost completely blocked
[2]; 100 μM or 10 μM
  lactate production corrected for CFU (FIG. 4B): still lower
[2]; 100 μM, biofilms grown 48 h, 3 h in BPW with 0.2% sucrose
  total lactic acid production per biofilm (FIG. 2): reduced lactic acid production
[2]; 96 hours of growth
  lactate production after 96 hours of growth: the reducing effect was still present
[3]; 100 μM, 48 h
  Streptococcus reduced versus control: more than 30%
  Veillonella more abundant than in control: 10%
  change in Actinobacillus species versus control: increase
[3]; 48 h
  Actinobacillus, share of biofilm composition: 27.6%
  Actinomyces, share of biofilm composition: 0.0%
  Campylobacter, share of biofilm composition: 1.1%
  Fusobacterium, share of biofilm composition: 0.0%
  Granulicatella, share of biofilm composition: 0.0%
  Haemophilus, share of biofilm composition: 0.2%
  Megasphaera, share of biofilm composition: 0.0%
  Neisseria, share of biofilm composition: 0.0%
  Other taxa, share of biofilm composition: 0.1%
  Porphyromonas, share of biofilm composition: 0.0%
  Prevotella, share of biofilm composition: 0.0%
  Rothia, share of biofilm composition: 0.0%
  Solobacterium, share of biofilm composition: 0.0%
  Streptococcus, share of biofilm composition: 34.3%
  Unclass. Pasteurellaceae, share of biofilm composition: 0.6%
  Veillonella, share of biofilm composition: 36.0%
[3]; 96 h
  Actinobacillus, share of biofilm composition: 12.0%
  Actinomyces, share of biofilm composition: 0.0%
  Campylobacter, share of biofilm composition: 7.2%
  Fusobacterium, share of biofilm composition: 0.0%
  Granulicatella, share of biofilm composition: 0.0%
  Haemophilus, share of biofilm composition: 0.1%
  Megasphaera, share of biofilm composition: 0.0%
  Neisseria, share of biofilm composition: 0.0%
  Other taxa, share of biofilm composition: 0.3%
  Porphyromonas, share of biofilm composition: 0.0%
  Prevotella, share of biofilm composition: 0.0%
  Rothia, share of biofilm composition: 0.0%
  Solobacterium, share of biofilm composition: 0.0%
  Streptococcus, share of biofilm composition: 28.7%
  Unclass. Pasteurellaceae, share of biofilm composition: 0.0%
  Veillonella, share of biofilm composition: 51.7%
[4]
  inhibitory concentration (concentration that completely inhibits oral plaque biofilm growth): above 800 μM
[4]; 100 μM, control 1.5×10^9 CFU
  in vitro oral plaque biofilm formation, Colony Forming Units: up to 6.6×10^8 CFU
[4]; Example 2, 100 μM, 48 h
  biofilm production (visible amount of biofilm): normal amounts of biofilm
[4]; all the other concentrations (below 100 μM), same as control
  in vitro oral plaque biofilm formation, Colony Forming Units: 1.5×10^9 CFU
[4]; highest concentration tested (100 μM)
  effect on in vitro oral plaque biofilm formation: slightly affected
